These results are taken from PMC7596334 (Redox Biology, 2020).

In the experiment the target is T1, 15LOX2 (Homo sapiens, UniProt O15296).
T1 sequence (O15296 1-676): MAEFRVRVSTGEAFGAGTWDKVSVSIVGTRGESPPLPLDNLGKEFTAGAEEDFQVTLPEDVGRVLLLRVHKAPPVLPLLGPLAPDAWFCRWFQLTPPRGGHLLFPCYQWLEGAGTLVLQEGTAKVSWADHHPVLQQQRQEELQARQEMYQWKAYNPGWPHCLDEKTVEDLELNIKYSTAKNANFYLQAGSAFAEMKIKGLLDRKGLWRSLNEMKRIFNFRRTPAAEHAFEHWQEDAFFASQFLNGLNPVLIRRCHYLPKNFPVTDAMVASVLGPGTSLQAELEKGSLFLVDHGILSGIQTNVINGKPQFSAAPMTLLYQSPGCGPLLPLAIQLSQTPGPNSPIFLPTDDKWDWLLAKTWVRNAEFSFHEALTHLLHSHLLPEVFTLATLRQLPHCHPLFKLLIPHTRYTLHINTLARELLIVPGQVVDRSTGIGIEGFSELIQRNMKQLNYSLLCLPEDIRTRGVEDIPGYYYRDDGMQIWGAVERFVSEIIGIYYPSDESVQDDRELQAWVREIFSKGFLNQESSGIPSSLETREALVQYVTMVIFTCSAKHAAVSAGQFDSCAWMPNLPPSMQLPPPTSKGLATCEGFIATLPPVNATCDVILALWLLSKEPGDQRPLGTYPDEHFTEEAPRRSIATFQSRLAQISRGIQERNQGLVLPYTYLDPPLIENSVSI
T1 sequence (P30086 2-187 partner): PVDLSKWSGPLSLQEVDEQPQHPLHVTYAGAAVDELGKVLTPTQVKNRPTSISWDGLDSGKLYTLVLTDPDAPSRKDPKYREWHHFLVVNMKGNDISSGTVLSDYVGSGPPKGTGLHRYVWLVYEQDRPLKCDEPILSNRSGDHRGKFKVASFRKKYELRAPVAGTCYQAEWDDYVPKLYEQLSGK
The format is biochemical.

A word on the IC50: it is the concentration needed to halve the response being measured. A lower IC50 goes with greater potency. On to `CCOC(=O)c1ccc(NC2CCCCC2)c(N)c1` [Fer-1, Ferrostatin-1], for which the midpoint of inhibition, the IC50, lay at 10.1 nM.
